The results in this text go back to US20130158111A1, “Compositions and Methods for Depleting Mutant p53” (Georgetown University, priority 2011, published 2013).

For assay [1], the system named is MDA-MB-231 breast cancer cells. The assay can be described thus: FITC-annexin V / propidium iodide apoptosis assay. In kind it is cell-based, Human. To be noted: MDA-MB-231, 10 μM, 24 h; for induction of apoptosis vs DMSO: p<0.05. The procedure:
Then, 100 μL of each sample was added to a 5 mm tube, and the annexin V apoptosis kit protocol was followed. Samples were immediately analyzed with flow cytometry.

For assay [2], the target named is T1, mutant p53 protein in H596 (G245C) non-small-cell lung cancer cells (Homo sapiens, UniProt P04637, G245C).
T1 construct: host or cells: H596
The assay can be described thus: Immunoblot of mutant p53 protein in H596 cells. In kind it is cell-based. An excerpt: (§1) Human H596, A549, HCT116, MDA-MB-231, MDA-MB-468, MCF-7, DU145, MCF-10A, SW480, and SCC-4 cells were obtained from ATCC (Manassas, Va.). H1299-175H cells were kindly provided by Dr. Maria Laura Avantaggiati (Georgetown University). Cells were maintained in DMEM or RPMI-1640 medium supplemented with 10% FBS (Hyclone). […] 2,2-Diphenylethyl ITC, 4-phenoxybenzyl ITC, 4-methoxybenzyl ITC, 4-chlorobenzyl ITC, Dα-methylbenzyl ITC, trityl ITC, and 3-phenylpropyl ITC were purchased from Trans World Chemicals (Rockville, Md.). Erucin and 4-phenylbutyl ITC were from LKT Laboratories, Inc. (St. Paul, Minn.). […] The p53 DO-1 and β-actin antibodies were purchased from Santa Cruz Biotechnology (Santa Cruz, Calif.), horseradish peroxidase-labeled goat antimouse secondary antibodies were purchased from GE-Healthcare (Pittsburgh, Pa.), and Bio-Rad Protein Assay was from Bio-Rad (Hercules, Calif.).
(§2) Whole cell lysates were prepared in lysis buffer (20 mM HEPES, pH 7.4, 2 mM EGTA, 50 mM β-glycerol phosphate, 1% Triton X-100, 10% glycerol, 1 mM DTT, 1 mM PMSF, […], 1 mM Na3-VO4, and 5 mM NaF). For immunoblot analysis, equal amounts of protein were resolved on 4-12% NuPAGE BisTris gels (Invitrogen) and transferred to PVDF membranes (Millipore). The membranes were blocked with 5% milk in TBST and were then probed with p53 (DO-1) or β-actin antibody. Proteins were detected using enhanced chemiluminescence (ECL) reagents (GE Healthcare).
A general note: Immunoblotting shows a protein as a band on a membrane.

For assay [3], the target named is T2, mutant (G245C) p53 DNA-binding domain (Homo sapiens, UniProt P04637, G245C).
T2 construct: made in house; host or cells: Escherichia coli BL21
The assay can be described thus: Monochlorobimane fluorometric cysteine binding assay. To be noted: 100 μM ITC, 1 h, 32 C; compared with trityl ITC, cyclohexylmethyl ITC, SFN, AITC, and PITC (p<0.05). The procedure: BL21 […] Escherichia coli were transformed with pET29b wild-type or mutant (G245C) p53 DNA binding domain (DBD) plasmids. The E. coli were then cultured in LB media supplemented with 100 μM ZnCl2 and 25 μg/mL kanamycin at 37° C. until OD600=0.6-0.8. Protein expression was induced by 0.1 mM isopropyl β-D-1-thiogalactopyranoside for 16 h at 37 gC for wild-type and 16 gC for mutant p53. Bacterial pellets were then harvested by centrifugation at 5000×g, 10 min, 4 gC, and lysed via sonication in 50 mM Tris, 50 mM KCl, 5 mM dithiothreitol, 1 mM PMSF, pH 7 buffer. The soluble fraction was passed through a Capto S cation exchange column (GE Healthcare) and eluted with 50 mM Tris, 200 mM KCl, 5 mM DTT, pH 7. Eluted protein was dialyzed overnight against a non-salt dialysis buffer (50 mM Tris, 5 mM DTT, pH 7) and loaded onto a HiTrap Heparin HP column (GE Healthcare). The p53 DBD was purified via a AKTApurifier-10 protein liquid chromatography system (GE Healthcare) with an increasing KCl salt gradient, and purity was tested by SDSPAGE and Coomassie blue staining. Purified protein was dialyzed in PBS, and protein concentrations were determined prior to performing fluorescence experiments.
In a white 96-well plate, 100 μL of purified mutant (G245C) p53 DNA-binding domain protein in PBS was treated with DMSO, 100 μM ITCs in DMSO, or 500 μM iodoacetamide (positive binding control). An additional well containing 100 μL of PBS was used to determine background. Samples were incubated with compounds in the dark for 1 h at 32 gC, after which […] of 10 mM monochlorobimane was added (in the dark), and samples were further incubated in the dark at 32 gC for 30 min. Fluorescence readings were then obtained using a BIO-TEK Synergy HT plate reader (λex 380 nm; λem 485 nm).

Assay [4] concerns the target T3, mutant p53 in MDA-MB-231 breast cancer cells (Homo sapiens, UniProt P04637, R280K).
T3 construct: host or cells: MDA-MB-231
Nature of the assay: Immunoblot of mutant p53 in MDA-MB-231 cells treated with ITCs. As to conditions: for depletion of mutant p53 (FIG. 3B-E): H596 20 μM / MDA-MB-231 10 μM ITCs. In kind it is cell-based.
Source text: as §1, §2

With `S=C=NCc1ccccc1` [BITC, benzyl isothiocyanate], the “induction of apoptosis vs DMSO” value in assay [1] is on record as “greater induction of apoptosis”. Besides, the “level of mutant p53” value in assay [2] (H596, 10 μM, 2 h) was “significantly reduced”. Moreover, the “depletion of mutant p53 at equimolar concentrations” value is recorded as “approximately the same extent” in assay [2] (H596, 20 μM ITCs, 24 h, compared with DMSO control) and “approximately the same extent” in assay [4] (MDA-MB-231, 10 μM ITCs, 24 h, compared with DMSO control). For the same compound, the “binding affinity for mutant (G245C) p53 DBD (free thiols, relative fluorescence)” value in assay [3] is reported as “greater binding affinities”. In addition, the “depletion of mutant p53 (FIG. 3B-E)” value in assay [4] was “deplete mutant p53”.
For the compound `S=C=NCCCCc1ccccc1` [4-PBITC, 4-phenylbutyl ITC], the “induction of apoptosis vs DMSO” value in assay [1] is given as “greater induction of apoptosis”. For the same compound, the “depletion of mutant p53 (FIG. 3B-E)” value in assay [4] is “deplete mutant p53”.
With `S=C=NCCCc1ccccc1` [3-PPITC, 3-phenylpropyl ITC], the “induction of apoptosis vs DMSO” value in assay [1] is recorded as “greater induction of apoptosis”. Also, the “binding affinity for mutant (G245C) p53 DBD (free thiols, relative fluorescence)” value in assay [3] was “greater binding affinities”. In addition, the “depletion of mutant p53 (FIG. 3B-E)” value in assay [4] is given as “deplete mutant p53”.
For the compound `S=C=NCC(c1ccccc1)c1ccccc1` [2,2-diphenylethyl ITC, 2,2-diphenylethyl isothiocyanate], the “induction of apoptosis vs DMSO” value in assay [1] was “greater induction of apoptosis”. Moreover, in assay [1] (p<0.05 compared with BITC), the “rank as inducer of apoptosis” value is recorded as “strongest inducer of apoptosis”. The “binding affinity for mutant (G245C) p53 DBD (free thiols, relative fluorescence)” value in assay [3] is on record as “greater binding affinities”. Besides, in assay [4] (FIG. 3B-E), the “rank as depletor of mutant p53 among ITCs studied” value was “most potent”. Besides, the “depletion of mutant p53 (FIG. 3B-E)” value in assay [4] was “deplete mutant p53”.
Take `COc1ccc(CN=C=S)cc1` [4-methoxybenzyl ITC]: the “binding affinity for mutant (G245C) p53 DBD (free thiols, relative fluorescence)” value in assay [3] is listed as “greater binding affinities”.
As for `S=C=NCc1ccc(Cl)cc1` [4-chlorobenzyl ITC], the “binding affinity for mutant (G245C) p53 DBD (free thiols, relative fluorescence)” value in assay [3] is given as “greater binding affinities”.
`CNCCc1ccccc1` [NMPEA, N-methylphenethylamine, reference compound]: the “mutant p53 protein level” value in assay [2] (H596, 15 μM, up to 24 h) was “failed to alter”; in assay [2] (H596, 60 μM for 2 h), “failed to alter”.
